One block for each compound: values may come before it. Ends that are not written are not given here. Peptide text beside a SMILES is read from it. * marks the point of attachment. Decanoyl = CCCCCCCCCC(=O)*
Assays:
MOLT-4 T cell line = experiment: Cyclic GMP assay, MOLT-4 cell line; assay type: cell-based, human; conditions: positive = cyclic GMP greater than 2 standard deviations above parallel negative control; peptide 1, 10, 100 μg/mL
From the text: This assay measures the ability of a peptide of this invention to bind to the cell membrane receptor of the intact MOLT-4 cell and selectively stimulate production of cyclic GMP, as does human thymopoietin.
The MOLT-4 cell line was obtained from the American Type Culture Collection of Rockville, Md. MOLT-4 cells were freshly seeded and grown for 3 days with harvesting as described in T. Audhya et al, Arch. Biochem Biophys., 234: 167-177 (1984). The cells were washed 3 times in PBS and resuspended in RPMI 1640 at a concentration of […]; cells/ml and were allowed to equilibrate at 37° C. for 30 minutes before the addition of the test pentapeptides or control peptides, in 25 μl to yield a final concentration of 1, 10, and 100 μg/mL. The incubation was allowed to proceed in a shaking water bath for 4-5 minutes and was then terminated by addition of 1 ml ice-cold TCA (10 percent in H2 O).
The cells in TCA were homogenized and sonicated to release cyclic nucleotide. The suspension was centrifuged at 3000×g for 20 minutes at 4° C. The resulting precipitate was dissolved in 0.1N NaOH to determine the protein content. […]
A threshold activity was determined for each peptide tested. […] Test results were considered positive if the level of cyclic GMP was greater than […] that determined for the parallel negative control.

CEM T cell line = experiment: Cyclic GMP assay, CEM cell line; assay type: cell-based, human; conditions: positive = cyclic GMP greater than 2 standard deviations above parallel negative control; peptide 1, 10, 100 μg/mL
γ TP receptor = experiment: Neuromuscular (electromyographic) assay; assay type: in vivo; conditions: i.v. or s.c. in mice, electromyography 18 hours after administration
Procedure: The neuromuscular assay is performed to determine the effect, if any, of different peptides and dosages of peptides on the γ TP receptor according to the invention. This assay is carried out as follows. Various doses of a selected peptide of this invention, prepared as described in the preceding examples, are dissolved in normal saline and injected either intravenously (i.v.) or subcutaneously (s.c.) into mice (or other selected laboratory animals). The electromyographic assay is performed according to G. Goldstein et al, J. Jeurol. and Neurosurg. Physchiat., 31:453-459 (1968) 18 hours after administration of the peptide.
Mice of either sex, weighing […], are anesthetized with 150 μl of 5% sodium pentobarbital (Abbott Laboratories, Chicago, Ill.). The nerve is stimulated with a Grass S-48 stimulator and a Grass SIV-5A stimulus isolation unit (Grass Instrument Co., Quincy, Mass.) and the electromyographic response is recorded with a Tektronix storage oscilloscope-5111 coupled to a 5A21N differential amplifier and a 5B10N time base (Tektronix, Beaverton, Oreg.).
Groups of five or more mice are used for each experiment. […] The mean, standard deviation and statistical significance of differences between experimental animals and controls are assessed by one-way analysis of variance based on ratio. […]

in vitro = conditions: rat, real gastrointestinal fluid or homogenate, pH 5.5
Procedure: (§1) A rat duodenum was opened and attached to a 3.5 mL diffusion cell [Crownglass, N.J.] with buffer in both chambers. The selected test peptide in phosphate buffer (pH 5.5) was applied to both the cells to a final concentration of 1 mg/mL, and samples were taken at 0, 2 and 4 hours. The aliquots were subjected to high performance liquid chromatography (HPLC) with ultraviolet detection at 220 nm. The solvent system for thymopentin was phosphate buffer and methanol.

[1] = Enzymatic stability, duodenum in diffusion cell; conditions: for intact peptide: rat duodenum, phosphate buffer pH 5.5, 1 mg/mL
Procedure: as §1

Compound: CCCCCCCCCC(=O)N[C@@H](CCCNC(=N)N)C(=O)N1CCC[C@H]1C(=O)N[C@@H](CC(=O)O)C(=O)N1CCC[C@H]1C(=O)N[C@@H](Cc1ccccc1)C(N)=O [Decanoyl-Arg-Pro-Asp-Pro-Phe-NH2] (Decanoyl-RPDPF-NH2)
inducing increased cGMP levels in the human MOLT-4 T cell line (β) (MOLT-4 T cell line): positive | inducing increased cGMP levels in the human CEM T cell line (α) (CEM T cell line): positive | thymopoietin/thymopentin-like results on the neuromuscular assay (γ) (γ TP receptor): γ-positive

remaining at 2 h, 1 mg/mL (in vitro): ~100% | remaining at 4 h, 1 mg/mL (in vitro): ~90%
Compound: Ac-RPDPF-NH2 [Acetyl-Arg-Pro-Asp-Pro-Phe-NH2]

Compound: Ac-RPTPF-NH2 [Acetyl-Arg-Pro-Thr-Pro-Phe-NH2]
inducing increased cGMP levels in the human CEM T cell line (α) (CEM T cell line): positive

Compound: Ac-RPTPY-NH2 [Acetyl-Arg-Pro-Thr-Pro-Tyr-NH2]
inducing increased cGMP levels in the human CEM T cell line (α) (CEM T cell line): positive

Compound: RKDVY [TP-5, thymopentin]
intact peptide ([1]; 0 hours): 100% | intact peptide ([1]; 4 hours): negligible | remaining at 2 h, 1 mg/mL ([1]; rat, rat duodenum mounted in a diffusion cell, pH 5.5): 20%
